Data published in patent US10251824B2, “Method for inducing pluripotent stem cells and pluripotent stem cells prepared by said method” (AMOREPACIFIC CORPORATION, priority 2013, dated 2019).

Tests used:
[1] = test system: NHDF-Neonatal; test: Colony-forming ability of dermal cells, crystal violet (Test Example 4-2); format: cell-based, human
Experimental: (§1) On day 5 after subculturing, the cells (200 cells) were attached on a 60-mm plate. On day 17, the cells were washed with ice-cold PBS and then fixed with ice-cold methanol kept at −20° C. for 10 minutes. The cells were stained by treating for 5-10 minutes with a working solution, which had been prepared by diluting 1% crystal violet in an ethanol stock solution 1/10 with PBS, washed 4 times with PBS and then imaged. For quantitative analysis, the cells were eluted by treating with an elution buffer consisting of 50% ethanol, 40% DW, and 10% acetic acid for 5 minutes. Then, absorbance was measured at 580 nm after transferring 200 μL of the cells to a 96-well plate.

[2] = test system: alkaline phosphatase (ALP); details: 5 μg/mL shikimic acid; day 11
Experimental: Untreated NHDF-Neonatal were used as a negative control group. On day 6 after the treatment, the cells (5,000 cells) were attached on a 12-well plate. 5 days later, i.e., on day 11, the cells were fixed with 3.8% formaldehyde in PBS and kept at room temperature for 15 minutes. Then, the cells were treated with 200 μL of the NBT/BCIP® ALP substrate solution diluted in 10 mL of ALP buffer, with 0.5 mL each time. 20 hours later, the cells were observed under the Olympus CKX41 optical microscope at 40× magnification.

[3] = test system: Oct3/4; test: Oct3/4 immunocytochemistry after digitonin permeabilization (Test Example 2-1); format: cell-based, human; details: 5 μg/mL shikimic acid (water); permeabilized NHDF-Neonatal; day 4
Experimental: (§2) Then, 400× images were obtained using the Carl Zeiss Confocal microscope LSM510 by immunocytochemistry using Oct3/4 antibody (Genetex, GTX100622, ×200) and Alexa Fluor® 488 goat anti-rabbit IgG. The ratio of Oct3/4-positive cells was determined by analyzing the Carl Zeiss Confocal microscopic images obtained from the Oct3/4 ICC experiment, for 4 or more images per sample, 5 on average.

[4] = test system: NHDF-Neonatal; test: Proliferating ability of dermal cells, WST-1 (Test Example 5); format: cell-based, human; details: 5 μg/mL shikimic acid; WST-1, absorbance 450 nm
Experimental: 2,000 NHDF-Neonatal (CC-2509, Lonza, USA) were attached on a 96-well plate. […] Then, we were subculturing it for 7 days (as confluency becomes to 90% or below on 7th day). After 6 days later, 10 μL of WST-1 was treated and absorbance was measured at 450 nm.

[5] = test system: alkaline phosphatase (ALP); test: Alkaline phosphatase (ALP) staining, shikimic acid at different concentrations (Test Example 3-2); format: cell-based, human; details: 10 μM or 10 mM shikimic acid; day 12; versus normal HDF
Text: On day 5 after the treatment, the cells (100,000 cells) were attached on a 6-well plate.

[6] = test system: NHDF-Neonatal; test: Colony-forming ability of dermal cells, crystal violet (Test Example 4-1); format: cell-based, human; details: shikimic acid, concentration not given; absorbance 580 nm
Experimental: as §1, with “day 10” for “day 5”, “day 23,” for “day 17,”

[7] = test system: Oct3/4; test: Oct3/4 immunocytochemistry, shikimic acid at different concentrations (Test Example 2-2); format: cell-based, human; details: for Ratio of Oct3/4-positive cells (%) Mean: NHDF-Neonatal, day 8
Experimental: as §2

Compound: O=C(O)C1=C[C@@H](O)[C@@H](O)[C@H](O)C1 [shikimic acid]
- Increase of colony-forming ability as compared to the negative control group (FIG. 17) ([1]; 10 μM, 50 μM, 100 μM, 1 mM or 10 mM shikimic acid, absorbance 580 nm, day 17): 1.27-5.06 times
- Crystal violet stained area, colony formation (FIG. 15) ([1]; 10 μM-10 mM shikimic acid, day 17, versus negative control): larger stained area
- Colony-forming ability, comparison of concentrations (FIG. 17) ([1]; 1 mM shikimic acid): the most increase in colony-forming ability
- Expression of ALP (FIG. 12) [2]: increased expression of ALP
- Ratio of Oct3/4-positive cells (%) Mean [3]: 29%
- Increase of cell division as compared to the normal control group (FIG. 18) [4]: 2 times
- Expression of ALP (FIG. 13) [5]: the expression of ALP was increased remarkably
- Increase of colony-forming ability as compared to the negative control group (FIG. 16) [6]: about 3.8 times
- Expression of the Oct3/4 gene in HDF (FIG. 11) ([7]; 10 μM or 10 mM shikimic acid, compared to untreated normal HDF): increased expression of the Oct3/4 gene
- Ratio of Oct3/4-positive cells (%) Mean ([7]; 10 μM shikimic acid (water)): 29%
- Ratio of Oct3/4-positive cells (%) Mean ([7]; 10 mM shikimic acid (water)): 27%
- Percentage of the cells positive for the Oct3/4 gene, on average ([7]; shikimic acid in water, 10 μM and 10 mM): 27-29%
